In ChEMBL document CHEMBL1135058, “New anti-malarial compounds from database searching” (Bioorg Med Chem Lett, 2002):

Columns and labels:
Plasmodium falciparum [1] = test: In vitro inhibition as IC50 against Plasmodium falciparum by [3H]hypoxanthine uptake; type: functional, organism-based
Plasmodium falciparum [2] = test: In vitro inhibition as IC50 against Plasmodium falciparum by [3H]hypoxanthine uptake; Not active; type: functional, organism-based
[3] = Plasmodium falciparum, read-out: IC50

SMILES | IC50 (Plasmodium falciparum [1]; [3]) | other results
COc1cccc(CN2CCCN(Cc3cccc(OC)c3O)C2c2ccc(N(CCCl)CCCl)cc2C)c1O | 1.2 µM | –
CCN(CC)CCCC(C)Nc1ccnc2cc(Cl)ccc12.O=P(O)(O)O.O=P(O)(O)O (centres undefined) [CHLOROQUINE PHOSPHATE] | – | IC50 (Plasmodium falciparum [1]): 0.16 µg/mL
COc1cc(C(c2c(O)oc3ccccc3c2=O)c2c(O)oc3ccccc3c2=O)cc(OC)c1OC | > 2 µM | –
O=C1C=CC(=C(c2ccc(O)cc2)c2c(Cl)c(Cl)c(Cl)c(Cl)c2C(=O)O)C=C1 | 20 µM | –
COc1ccc(/C(=N\O)c2nccc3cc(OC)c(OC)cc23)cc1OC | 20 µM | –
Cc1ccc(C(C)C)c(OP(=S)(S)Oc2cc(C)ccc2C(C)C)c1 | – | IC50 (Plasmodium falciparum [2]): Not Active

The next lines start with results.

IC50 (Plasmodium falciparum [1]; [3]) | SMILES | other results
3.2 µM | COc1ccc(C2OCC3(O)C(c4ccc(OC)c(OC)c4)OCC23)cc1OC (centres undefined) | –
4 µM | CCN(CC)c1ccc(NCC(O)c2cc(Cl)ccc2OC)cc1 (centres undefined) | –
20 µM | COc1cc(C(=O)C(O)c2cc(OC)c(OC)c(OC)c2)cc(OC)c1OC (centres undefined) | –
6.6 µM | Cc1cc2c3c(c1-c1c(C)cc4c(C(C)C)c(O)c(O)c(C=N)c4c1O)OC1=C4C(=O)C(O)C(C(C)C)c5cc(C)c(-c6c(C)cc7c(C(C)C)c(O)c(O)c(C=O)c7c6O)c(c54)OC(=C3C(=O)C(O)C2C(C)C)N1 (centres undefined) | –
6.2 µM | COc1ccc(CC(=O)c2c(O)c3c(c(CC=C(C)C)c2OC)OC(C)(C)CC3)cc1 | –
3 µM | COc1ccccc1/C=C/C(=O)O [COUMARINIC ACID METHYL ETHER] | –
8 µM | COc1ccc(C(O)C2c3c(cc4c(c3OC)OCO4)CCN2C)c(CO)c1OC (centres undefined) | –
4.6 µM | COc1cccc(C(O)C2=CC(=O)c3ccccc3C2=O)c1OC (centres undefined) | –
